Results: publication PMC11407758, “Integrated stress response (ISR) activation and apoptosis through HRI kinase by PG3 and other p53 pathway-restoring cancer therapeutics” (Oncotarget, 2024)

Columns and labels:
[1] = system: GCN2, PKR, eIF2α, ATF4, CHOP in HT29 cells; assay: Western blot, ISR kinases / eIF2α / ATF4 / CHOP; assay type: cell-based, human; settings: pre-treatment 2 hours, then ONC201 or PG3 for 24 hour
Protocol: Figure 7 PG3 induces upregulation of ATF4 through ISR via HRI. (A) HT29 cells were treated with PG3, GSK2606414, TG and ONC201 respectively, or co-treatment with PG3/GSK2606414, PG3/TG, and PG3/ONC201 for 15 h. (B) MEF, MEF^PERK−/− and MEF^GCN2−/− cells were treated with PG3 and ONC201 for 16 hours. (C) HT29 cells were transfected with siControl, siPKR, siHRI and siPKR/siHRI for 24 hours and then treated with PG3 for 16 hours. (D) HCT116 p53^−/− cells were transfected with siControl and siHRI for 24 hours and then treated with PG3 for 16 hours. (E) HCT116 p53^−/− cells were treated with PG3 and ONC201 for indicated times. (F) PANC1-sgCtrl, -sgHRI and -sgPKR cell lines were treated with PG3 and imipridones (ONC201, ONC206 and ONC212) for 16 hours. Western blot was performed using indicated antibodies. (G) Proposed model of PG3-induced cell apoptosis through HRI/ATF4/PUMA axis. Abbreviation: L.E.: Long exposure.
(§1) After treatment, protein lysates were collected for Western blot analysis. A total of 15 μg of protein was used for SDS-PAGE. After primary and secondary antibody incubations, the signal was detected by a chemiluminescence detection kit, imaged by Syngene (Imgen Technologies). Antibodies for NAG-1 (GDF15) and P53 were from Santa Cruz Biotechnology; for caspase 8, cleaved caspase 8, caspase 9, caspase 3, cleavage PARP, eIF2α, p-eIF2α (Ser51), CHOP, ATF4, DR5, and PUMA were from Cell Signaling Technology. Noxa and p21 were from Calbiochem. Ran was from BD Biosciences.
Supplementary Figure 2: ROS and NO are not responsible for PG3-induced HRI activation. (A, B) cells were pre-treated
with ZnPP, L-NMMA, SA and NAC for 2 hours respectively, and then ONC201 or PG3 was added to the medium for 24 hour treatment.
Western blot was performed using indicated antibodies.
(1 picture or pasted object on this page, not shown here)

PUMA = assay: Western blot, PUMA induction; assay type: cell-based, human
Protocol: (§2) Figure 4 Activation of ATF4 and up-regulation of typical p53 target genes. (A–E) Western blot analysis of p53 protein levels and upregulation of ATF4, PUMA, DR5 and p21. Cells were treated for 24 h with indicated compounds, concentrations and cell lines. Abbreviations: S.E.: Short exposure; L.E.: Long exposure.
as §1

HCT116 (WT) = assay: Cell viability assay (CellTiterGlo), HCT116 WT; assay type: cell-based, human
Protocol: (§3) Figure 1 PG3 inhibits cell proliferation and growth in a p53-indepent manner. (A–E) Cell viability assay, dose response curves and IC50 value measurements in a panel of cancer cell lines and normal cells. Cells were treated with different concentrations of PG3, PG3-Oc (Oc), obatoclax (Ob), prodigiosin (P) or DMSO for 72 h. Luciferase activity was imaged by the IVIS Imaging System after treatment. Cell viability data were normalized to those of DMSO treatment control in each cell line and data analyses were performed using PRISM4 software. IC50 data are expressed as the mean ±SD (normal; n = 3).
as §3, with “2 p53-dependent inhibition of” for “1 PG3 inhibits”, “is only observed at specific concentrations. (A–J)” for “and growth in a p53-indepent manner. (A–E)”, “ZMC1, CP-313908, APR-246, Ellipticine, Nutalin-3a” for “PG3, PG3-Oc (Oc), obatoclax (Ob), prodigiosin (P)”
(§4) Cells were seeded in 96-well plates (6 × 10^3 cells/well). Cells were treated with different concentrations of compounds or dimethyl sulfoxide (DMSO) as a control for 72 hours. The cell viability was assessed by CellTiterGlo bioluminescent cell viability assay (Promega), following the manufacturer’s protocol. Bioluminescence imaging was measured using the IVIS imager. The percentage of cell viability (mean ± SEM) at each dose was calculated against the respective DMSO control. The IC50 values were determined from the sigmoidal dose-response curves using GraphPad Prism.

[2] = system: HT29, TOV-112D, isogenic HCT116 cell lines, HFF-1 and MRC5; assay: Cell viability assay, panel of cancer cell lines and normal cells (results in words); assay type: cell-based, human
Protocol: as §3, with “2 p53-dependent inhibition of” for “1 PG3 inhibits”, “is only observed at specific concentrations. (A–J)” for “and growth in a p53-indepent manner. (A–E)”, “ZMC1, CP-313908, APR-246, Ellipticine, Nutalin-3a” for “PG3, PG3-Oc (Oc), obatoclax (Ob), prodigiosin (P)”
as §4

DR5 = assay: Western blot, DR5 induction; assay type: cell-based, human
Protocol: as §2, §1

p53 protein = assay: Western blot, p53 protein levels; assay type: cell-based, human; settings: for wild-type p53 protein level: HCT116, 24 h; for endogenous mutant p53 R273H protein level: HT29, 24 h; for endogenous mutant p53 R175H protein level: TOV-112D; for endogenous mutant p53 R175H protein level / exogenous mutant p53 R175H protein level: 24 h; for exogenous mutant p53 R175H protein level: engineered HCT116-R175H cells
Protocol: Cells were treated for 24 h with indicated compounds, concentrations and cell lines. Abbreviations: S.E.: Short exposure; L.E.: Long exposure.
as §1

ATF4 = assay: Western blot, ATF4 induction; assay type: cell-based, human; settings: five cancer cell lines, 24 h
Protocol: as §2, §1

p21 = assay: Western blot, p21 induction; assay type: cell-based, human
Protocol: as §2, §1

[3] = system: SW480 cells carrying a p53-responsive luciferase reporter; assay: p53-responsive reporter assay; assay type: cell-based, human; settings: 10 μM, 6 hour and 15 hour time points
Protocol: SW480 cells carrying a p53-responsive luciferase reporter were used for assay of functional restoration of mutant p53. Cells were seeded in 96-well plates (5 × 10^4 cells/well) and were treated with compounds indicated for 6 and 15 h, respectively. Then, D-luciferin was added to each well with final concentration 100 μg/mL, and cells were imaged by using an IVIS Imaging System to detect luciferase activity.
p53-mutant SW480 human colon cancer cells, stably expressing a p53-responsive luciferase reporter, were used to assay functional restoration p53 pathway-dependent transcription in mutant p53-expressing tumor cells. Cells were seeded in 96-well plates (5 × 10^4 cells/well) and were treated with small-molecule compounds for 6 and 15 h, respectively. Then, D-luciferin was added to each well at a final concentration of 100 μg/mL, and cells were imaged by using an IVIS Imaging System (Xenogen) to detect luciferase activity.

HCT116 (R175H) = assay: Cell viability assay (CellTiterGlo), HCT116 R175H; assay type: cell-based, human; settings: Homo sapiens, HCT-116; 72 h, CellTiterGlo
Protocol: as §3
as §3, with “2 p53-dependent inhibition of” for “1 PG3 inhibits”, “is only observed at specific concentrations. (A–J)” for “and growth in a p53-indepent manner. (A–E)”, “ZMC1, CP-313908, APR-246, Ellipticine, Nutalin-3a” for “PG3, PG3-Oc (Oc), obatoclax (Ob), prodigiosin (P)”
as §4

[4] = system: HFF-1 (human foreskin fibroblast cell with wild-type p53); assay: Cell viability assay (CellTiterGlo), HFF-1 normal cells; assay type: cell-based; settings: Homo sapiens, HFF-1; 72 h, CellTiterGlo, normal cells; read-out: IC50 values, HFF-l (WT)
Protocol: as §3
as §3, with “2 p53-dependent inhibition of” for “1 PG3 inhibits”, “is only observed at specific concentrations. (A–J)” for “and growth in a p53-indepent manner. (A–E)”, “ZMC1, CP-313908, APR-246, Ellipticine, Nutalin-3a” for “PG3, PG3-Oc (Oc), obatoclax (Ob), prodigiosin (P)”
as §4

HCT116 (P53−/−) = assay: Cell viability assay (CellTiterGlo), HCT116 p53-/-; assay type: cell-based, human; settings: Homo sapiens, HCT-116; 72 h, CellTiterGlo
Protocol: as §3
as §3, with “2 p53-dependent inhibition of” for “1 PG3 inhibits”, “is only observed at specific concentrations. (A–J)” for “and growth in a p53-indepent manner. (A–E)”, “ZMC1, CP-313908, APR-246, Ellipticine, Nutalin-3a” for “PG3, PG3-Oc (Oc), obatoclax (Ob), prodigiosin (P)”
as §4

HT29 (R273H) = assay: Cell viability assay (CellTiterGlo), HT29; assay type: cell-based, human; settings: Homo sapiens, HT-29; 72 h, CellTiterGlo
Protocol: as §3
as §3, with “2 p53-dependent inhibition of” for “1 PG3 inhibits”, “is only observed at specific concentrations. (A–J)” for “and growth in a p53-indepent manner. (A–E)”, “ZMC1, CP-313908, APR-246, Ellipticine, Nutalin-3a” for “PG3, PG3-Oc (Oc), obatoclax (Ob), prodigiosin (P)”
as §4

TOV-112D (R175H) = assay: Cell viability assay (CellTiterGlo), TOV-112D; assay type: cell-based, human; settings: Homo sapiens, TOV112D; 72 h, CellTiterGlo; read-out: IC50 values, TOV-1120 (R175H) (converted)
Protocol: as §3
as §3, with “2 p53-dependent inhibition of” for “1 PG3 inhibits”, “is only observed at specific concentrations. (A–J)” for “and growth in a p53-indepent manner. (A–E)”, “ZMC1, CP-313908, APR-246, Ellipticine, Nutalin-3a” for “PG3, PG3-Oc (Oc), obatoclax (Ob), prodigiosin (P)”
as §4

[H]/N=C(/NC)NCCC[C@H](N)C(=O)O [L-NMMA, N-Methyl-L-arginine acetate]
effect on PG3- or ONC201-induced upregulation of ATF4 [1]: do not attenuate or block

COc1ccc(C2=N[C@@H](c3ccc(Cl)cc3)[C@@H](c3ccc(Cl)cc3)N2C(=O)N2CCNC(=O)C2)c(OC(C)C)c1 [Nutlin-3a]
upregulation of PUMA (PUMA; HCT116 (p53 wild-type), 24 h): significantly upregulates | inhibition of viability (HCT116 (WT); p53 wild-type HCT116, 6.67 μM): selectively inhibits the viability | inhibitory activity ([2]; HT29 and TOV-112D): shows inhibitory activity | effect on viability ([2]; p53-null and p53 R175H HCT116, 6.67 μM): no significant effects | upregulation of DR5 (DR5; five cell lines, 24 h): does not upregulate DR5 | wild-type p53 protein level (p53 protein): stabilizes | endogenous mutant p53 R273H protein level (p53 protein): no effects | endogenous mutant p53 R175H protein level (p53 protein): no effects | exogenous mutant p53 R175H protein level (p53 protein): no effects | upregulation of ATF4 (ATF4): do not upregulate ATF4 | upregulation of p21 (p21; HCT116 (p53 wild-type), 24 h): significantly upregulates

Cc1c2ccncc2c(C)c2c1[nH]c1ccccc12 [Ellipticine]
upregulation of PUMA (PUMA; HCT116 (p53 wild-type), 24 h): mildly upregulates PUMA | upregulation of PUMA (PUMA; HT29, 24 h): does not upregulate PUMA | upregulation of PUMA (PUMA; TOV-112D, 24 h): does not upregulate PUMA | p53-responsive reporter activity [3]: activates the reporter activity | IC50 (HCT116 (R175H)): 1790 nM | IC50 (HCT116 (WT); Homo sapiens, HCT-116, 72 h, CellTiterGlo): 999 nM | selective toxicity among isogenic HCT116 cell lines (HCT116 (WT); isogenic HCT116 cell lines, 1.11 μM): selective toxicity towards the p53-wild-type cell line | toxicity to normal cells ([2]; HFF-1 and MRC5, 0.04 to 3.33 μM): no significant toxicity | inhibition of proliferation ([2]; HT29 and TOV-112D, 0.04 to 3.33 μM): selectively inhibits the proliferation | upregulation of DR5 (DR5; HCT116 (p53 wild-type), 24 h): slightly upregulates the short isomer of DR5 | upregulation of DR5 (DR5; HT29, 24 h): slightly upregulates the short isomer of DR5 | IC50 [4]: 6070 nM | IC50 (HCT116 (P53−/−)): 2420 nM | IC50 (HT29 (R273H)): 713 nM | IC50 (TOV-112D (R175H)): 19300 nM | wild-type p53 protein level (p53 protein): potently stabilizes | endogenous mutant p53 R273H protein level (p53 protein): stabilized | endogenous mutant p53 R175H protein level (p53 protein): mildly downregulates | exogenous mutant p53 R175H protein level (p53 protein): upregulates | upregulation of ATF4 (ATF4): do not upregulate ATF4 | upregulation of p21 (p21; HCT116 (p53 wild-type), 24 h): significantly upregulates p21 | upregulation of p21 (p21; HCT116 p53-R175H, 24 h): mildly upregulates p21 | upregulation of p21 (p21; HCT116 p53–/–, 24 h): slightly upregulates p21 | upregulation of p21 (p21; HT29, 24 h): slightly upregulates p21 | upregulation of p21 (p21; TOV-112D, 24 h): mildly upregulates p21

CC(=O)N[C@@H](CS)C(=O)O [NAC, N-acetylcysteine]
effect on PG3- or ONC201-induced upregulation of ATF4 [1]: do not attenuate or block
